Source: ChEMBL document CHEMBL1201862, “PubChem BioAssay data set” (2004)
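Protocol summary: plate cells (96-well), add compound at 5 concentrations, incubate 48 h, interpolate endpoints linearly. The concentration for 50% growth inhibition is given as GI50.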 Calls of active or inactive are those of the source. Cut-off read from the data, not from the text of the source: active = GI50 up to about 1.1 µM and inactive = higher.

Key:
Test in all cases: growth of human tumour cells (NCI), 48 h
UACC-257 = system: UACC-257
CAKI-1 = system: CAKI-1
SF-539 = system: SF-539
OVCAR-5 = system: OVCAR-5
HCC 2998 = system: HCC 2998
BT-549 = system: BT-549
HOP-92 = system: HOP-92
HCT-116 = system: HCT-116
HT-29 = system: HT-29
SF-268 = system: SF-268
RXF 393 = system: RXF 393
DU-145 = system: DU-145
A498 = system: A498
SK-MEL-28 = system: SK-MEL-28
SF-295 = system: SF-295
HCT-15 = system: HCT-15
CCRF-CEM = system: CCRF-CEM
A549 = system: A549
IGROV-1 = system: IGROV-1
ACHN = system: ACHN
OVCAR-8 = system: OVCAR-8
TK-10 = system: TK-10
OVCAR-3 = system: OVCAR-3
U-251 = system: U-251
SK-MEL-2 = system: SK-MEL-2
MOLT-4 = system: MOLT-4
Malme-3M = system: Malme-3M
SNB-19 = system: SNB-19
KM12 = system: KM12
UO-31 = system: UO-31
MDA-MB-435 = system: MDA-MB-435
PC-3 = system: PC-3
NCI-H460 = system: NCI-H460
MCF7 = system: MCF7
SR = system: SR
Hs-578T = system: Hs-578T
HL-60 = system: HL-60
NCI-H23 = system: NCI-H23
SK-OV-3 = system: SK-OV-3
K562 = system: K562
OVCAR-4 = system: OVCAR-4
NCI/ADR-RES = system: NCI/ADR-RES
MDA-N = system: MDA-N
NCI-H522 = system: NCI-H522
UACC-62 = system: UACC-62
MDA-MB-231 = system: MDA-MB-231
NCI-H226 = system: NCI-H226
COLO 205 = system: COLO 205
EKVX = system: EKVX
SW-620 = system: SW-620
SN12C = system: SN12C
T47D = system: T47D
LOX IMVI = system: LOX IMVI
SNB-75 = system: SNB-75
RPMI-8226 = system: RPMI-8226
786-0 = system: 786-0
M14 = system: M14
SK-MEL-5 = system: SK-MEL-5
HOP-62 = system: HOP-62

Clc1cc(OCc2nn3c(Cc4ccccc4)nnc3s2)c(Cl)cc1OCc1nn2c(Cc3ccccc3)nnc2s1 was tested, and the GI50 (UACC-257) was > 100 µM (inactive), the GI50 (CAKI-1) was > 100 µM (inactive) and the GI50 (SF-539) was 42.2 µM (inactive). The GI50 (OVCAR-5) was > 100 µM (inactive), the GI50 (HCC 2998) was > 100 µM (inactive) and the GI50 (BT-549) was 20.8 µM (inactive). For the same compound, the GI50 (HOP-92) was 18.8 µM (inactive), the GI50 (HCT-116) was 77.1 µM (inactive) and the GI50 (HT-29) was 76.6 µM (inactive). The GI50 (SF-268) was 43.8 µM (inactive), the GI50 (RXF 393) was 17 µM (inactive) and the GI50 (DU-145) was 47.1 µM (inactive). For the same compound, the GI50 (A498) was 30.5 µM (inactive), the GI50 (SK-MEL-28) was > 100 µM (inactive) and the GI50 (SF-295) was 31.3 µM (inactive). For the same compound, the GI50 (HCT-15) was 7.05 µM, the GI50 (CCRF-CEM) was 12.3 µM (inactive) and the GI50 (A549) was 94.8 µM (inactive). For the same compound, the GI50 (IGROV-1) was 36 µM (inactive), the GI50 (ACHN) was 59 µM (inactive) and the GI50 (OVCAR-8) was 28.6 µM (inactive). For the same compound, the GI50 (TK-10) was 29.9 µM (inactive), the GI50 (OVCAR-3) was 33.3 µM (inactive) and the GI50 (U-251) was 31.6 µM (inactive). The GI50 (SK-MEL-2) was > 100 µM (inactive), the GI50 (MOLT-4) was 3.77 µM (inactive) and the GI50 (Malme-3M) was > 100 µM (inactive). For the same compound, the GI50 (SNB-19) was 27.9 µM (inactive), the GI50 (KM12) was > 100 µM (inactive) and the GI50 (UO-31) was 47.8 µM (inactive). For the same compound, the GI50 (MDA-MB-435) was > 100 µM (inactive), the GI50 (PC-3) was 78.3 µM (inactive) and the GI50 (NCI-H460) was > 100 µM (inactive). The GI50 (MCF7) was > 100 µM (inactive), the GI50 (SR) was 0.541 µM (active) and the GI50 (Hs-578T) was 42.4 µM (inactive). For the same compound, the GI50 (HL-60) was 68.1 µM (inactive), the GI50 (NCI-H23) was 23.9 µM (inactive) and the GI50 (SK-OV-3) was 25.8 µM (inactive). For the same compound, the GI50 (K562) was 4.93 µM (inactive), the GI50 (OVCAR-4) was 50 µM (inactive) and the GI50 (NCI/ADR-RES) was 16 µM (inactive). For the same compound, the GI50 (MDA-N) was 79.4 µM (inactive), the GI50 (NCI-H522) was > 100 µM (inactive) and the GI50 (UACC-62) was > 100 µM (inactive). The GI50 (MDA-MB-231) was 26.4 µM (inactive), the GI50 (NCI-H226) was > 100 µM (inactive) and the GI50 (COLO 205) was > 100 µM (inactive). For the same compound, the GI50 (EKVX) was 54.1 µM (inactive), the GI50 (SW-620) was > 100 µM (inactive) and the GI50 (SN12C) was > 100 µM (inactive). For the same compound, the GI50 (T47D) was 22.1 µM (inactive), the GI50 (LOX IMVI) was > 100 µM (inactive) and the GI50 (SNB-75) was 1.32 µM (inactive). For the same compound, the GI50 (RPMI-8226) was 8.89 µM (inactive), the GI50 (786-0) was 33.7 µM (inactive) and the GI50 (M14) was > 100 µM (inactive). For the same compound, the GI50 (SK-MEL-5) was 41.8 µM (inactive) and the GI50 (HOP-62) was 33.3 µM (inactive).
